From PMC6143478, “Lipophilic activated ester prodrug approach for drug delivery to the intestinal lymphatic system” (Journal of Controlled Release, 2018) come the findings set out here.

Like-named read-outs stand apart in the source and are kept apart here.

Data set [1] in a line: Plasma pharmacokinetics following intravenous administration in rats. Format: in vivo. The note with it: i.v., dose equivalent to 2.5 mg/kg BEX, rat; in words. The method, then:
The protocols for pharmacokinetic and biodistribution experiments in this study were reviewed and approved by the University of Nottingham Ethical Review Committee in accordance with the Animals [Scientific Procedures] Act 1986. Male Sprague Dawley rats (Charles River Laboratories, UK) weighing 350–380 g were used. The animals were housed in the Bio Support Unit, University of Nottingham. Continuous lymph collection was performed according to a protocol approved by the Institutional Animal Care and Use Committee at Rutgers, The State University of New Jersey. Male Sprague Dawley rats (Envigo, Inc., NJ, USA) weighing 300–350 g were used for the continuous lymph collection. […]
Jugular vein cannulation surgery procedures were conducted under general anaesthesia for blood sampling. […] Blood samples of 250 μL volume were collected from the cannula at pre-determined time points following administration. […]
The HPLC-UV system consisting of a separation module (Waters Alliance 2695) equipped with a UV detector (Waters 996) was used for analysis. […] BEX and its prodrugs were detected at 259 nm and RA and its prodrugs at 357 nm.
Assessment of statistical significance of differences between two groups was conducted by means of two-tailed unpaired t-test. Statistical significance among three or more groups was assessed by means of a one-way ANOVA followed by Tukey's multiple comparisons test. […]

Data set [2] in a line: Biodistribution to mesenteric lymph nodes (MLN) and lymph following oral administration in rats. The data set is classed as in vivo. Conditions: dose equivalent to 10 mg/kg BEX, rat; for Kp: male, Sprague Dawley, intact prodrug. The method, then:
The protocols for pharmacokinetic and biodistribution experiments in this study were reviewed and approved by the University of Nottingham Ethical Review Committee in accordance with the Animals [Scientific Procedures] Act 1986. Male Sprague Dawley rats (Charles River Laboratories, UK) weighing 350–380 g were used. The animals were housed in the Bio Support Unit, University of Nottingham. Continuous lymph collection was performed according to a protocol approved by the Institutional Animal Care and Use Committee at Rutgers, The State University of New Jersey. Male Sprague Dawley rats (Envigo, Inc., NJ, USA) weighing 300–350 g were used for the continuous lymph collection. Animals were allowed free access to food and water and were acclimatised for at least 6 days prior to any procedures at both institutions in a controlled-temperature environment with 12 h light/dark cycles.
Formulations were prepared as described in the above pharmacokinetic study and were delivered by an oral gavage. Animals were euthanised at pre-determined time points. Blood was collected from the posterior vena cava and lymph samples were taken from the mesenteric lymph duct. MLNs were dissected and collected as previously described. The MLNs were isolated from surrounding tissue with care not to compromise the integrity of the lymph nodes. The MLNs were homogenised (POLYTRON® PT 10–35 GT, Kinematica AG, Luzern, Switzerland) with 10 mg/mL NaF in water (1,2, w/v) on an ice bath prior to sample preparation for HPLC analysis.
A combination of protein precipitation and liquid-liquid extraction was applied to samples prior to HPLC injection. To 100 μL sample, 300 μL of acetonitrile was added for protein precipitation and then 300 μL of pH modifier was added when necessary (Supplementary Material Table S2). […] The organic layer was separated and evaporated under N2 gas. Reconstitution solvent (100 μL) was used as detailed in Supplementary Material Table S2 and 40 μL was injected into the HPLC-UV system. […] Therefore, storage and preparation of all samples were performed within the time frame and conditions of confirmed stability.
The HPLC-UV system consisting of a separation module (Waters Alliance 2695) equipped with a UV detector (Waters 996) was used for analysis. Samples in the autosampler were maintained at 4 °C and the column at 40 °C. The stationary and mobile phases were used as specified in Supplementary Material Table S2. BEX and its prodrugs were detected at 259 nm and RA and its prodrugs at 357 nm.

The nature of data set [3]: Prodrug conversion assay in rat plasma. Format: in vitro ADME. The method, then: (§1) The prodrugs were tested for their stability and conversion into their corresponding active drug using fasted state simulated intestinal fluid (FaSSIF) with added esterase enzyme activity (20 IU/mL), rat plasma, and postprandial rat lymph. The FaSSIF was prepared as previously described in the literature. The medium was pre-heated to 37 °C prior to the assay for 5 min. The experiment was initiated by spiking stock solutions of prodrugs to give a final concentration of 10 μM of the prodrugs in the medium. When the stability of the artificial emulsion-associated prodrugs was tested in plasma, the association of compounds with artificial emulsion was performed prior to stability experiments and the concentrations of the compounds in the associated emulsion were measured. The emulsion was then spiked to give a concentration of 10 μM of the prodrugs in plasma. The reaction mixtures were incubated at 37 °C and shaken at 200 rpm on a temperature-controlled orbital shaker (Thermo Scientific MaxQ4000, Waltham, MA, USA) for 4 h. Samples were withdrawn at pre-determined time points, and the reaction was terminated by addition of acetonitrile. The samples were then subjected to sample preparation and analysis as described below. The natural log percentage of the prodrug concentration was plotted against incubation time, and the slope (k) was obtained from the plot. Half-life of active drug release (t1/2) was calculated by the following equation: t1/2 = −0.693/k. All experiments were conducted in triplicate.

Data set [4] in a line: Prodrug conversion assay in postprandial rat lymph. Format: in vitro ADME. Conditions: CM-rich postprandial rat lymph, ex vivo; relative to rat plasma. The method, then:
as §1, with “The natural log percentage of the prodrug concentration was plotted against incubation time, and the slope (k) was obtained from the plot.” left out, “All experiments were conducted in triplicate.” left out

For orientation: half-life means how long it takes for the measured level to halve. For `C=C(c1ccc(C(=O)OCC)cc1)c1cc2c(cc1C)C(C)(C)CCC2(C)C` [prodrug 2], the “conversion of prodrug to BEX in plasma in vivo” value in data set [1] was “rapidly converted to BEX”. Besides, the “concentrations of BEX in intestinal lymphatics (MLNs, lymph) relative to plasma” value in data set [2] (BEX analyte, in words) is “comparable between the three matrices”. Further, the Kp is 41 in data set [2] (mesenteric lymph / plasma, read-out: concentration of prodrug in lymph compared to plasma) and 6 in data set [2] (mesenteric lymph nodes (MLN) / plasma, read-out: concentration of prodrug in MLNs compared to plasma). Further, in data set [3] (prodrug incorporated into Intralipid lipid particles, 10 μM, relative to free form), the “conversion of emulsion-associated form of prodrug in rat plasma” value was “delayed conversion”. Besides, the half-life at 10 μM in data set [3] (rat, plasma, in vitro, 37 °C, free form, read-out: half-life of active drug release in rat plasma) was 20 min. In addition, the “half-life of active drug release in postprandial lymph” value in data set [4] was “prolonged”.
